Results on one compound are retold here after US12295973B2 (Fred Hutchinson Cancer Center, priority 2017, dated 2025).

One assay relates to LT-HSCs. Briefly: Cell cycle status of LT-HSCs in Poly I:C and SL-TBI models, surgically castrated mice. It counts as in vivo, mouse. The method, then:
To further validate this hypothesis, two additional models were used to force HSCs out of their quiescence phase, Poly I:C and sub-lethal dose of total body irradiation (SL-TBI)^35,42,43. To eliminate any potential effects of downstream sex steroids on HSCs, all cohorts of mice in these studies had been surgically castrated.
Reagents: Degarelix (as acetate), a LHRH-Ant (Firmagon), was resuspended in sterile water for injection and administered S.C. to mice at a dose of 40 mg/kg. To evaluate the radiomitigative effect of LHRH-Ant on survival, mice were treated subcutaneously (S.C.) with a single injection of the LHRH-Ant or a saline control solution (PBS). Degarelix was purchased from the Memorial Sloan-Kettering Cancer Center Pharmacy. […] LH from human pituitary (SIGMA) was resuspended in PBS for in vitro studies. MDV3100 (selleckchem) was resuspended in a mixture of 45% PBS, 45% PEG and 10% DMSO and administered daily to mice by oral gavage at a dose of 10 mg/kg. 5-FU (InvivoGen) was administered to mice intraperitoneally (I.P.) at a dose of 150 mg/kg once every 7 days consecutively for 3 times as previously described^34,47,49. […]

The subject of assay [1] is hematopoietic stem and progenitor cell (HSPC) compartment. Briefly: Bone marrow analysis of the HSPC compartment after L-TBI (cellularity, flow cytometry). The class given is in vivo, mouse. The method, then:
To investigate the specific regenerative effects mediated by LHRH-Ant treatment on the hematopoietic stem and progenitor cell (HSPC) compartment, BM were analyzed at several time points after L-TBI. […] To determine hematopoietic functional potential, colony-forming unit activity was next quantified to determine the effects of LHRH-Ant on the recovery of committed hematopoietic progenitor cells. […] Consistent with these functional findings, on day 14 after L-TBI, expansion of LSKs as well as their downstream progenitors in mice given LHRH-Ant were found (FIGS. 2F, 2G). […] However, given the changes in HSC phenotype after radiation, the standard competitive repopulation functional assay was adapted to evaluate the presence and relative quantity of functional HSCs after L-TBI. Specifically, all cells from the BM and spleen (to account for potential changes to circulating HSCs) were collected and transplanted from vehicle or LHRH-Ant treated mice at day 14 after L-TBI into irradiated hosts (along with a rescue dose of congenic WBM cells to ensure survival). This approach allowed detection of differences in the total number of residual HSCs which would be reflected by a functional difference in hematopoietic reconstitution.
Flow cytometry and cell cycle analysis: Monoclonal antibodies recognizing the following markers were used for flow cytometric analyses and cell sorting of murine cells (LSR II or FACSAria III, BD Biosciences): (from BD Pharmingen) c-kit (2B8), Sca-1 (D7), CD11b (M1/70), CD11c (HL3), CD19 (ID3), CD3ϵ (145-2C11), CD34 (RAM34), CD45 (30-F11), CD45.1 (A20), CD45.2 (104), CD48 (HM48-1), CD62L (MEL-14), CD135 (A2F10.1), Gr-1 (RB6-8C5), NK1.1 (PK136), TER-119 (TER-119); (from eBioscience) CD127 (A7R34), CD150 (mShad150); (from Invitrogen) B220 (RA3-6B2) and streptavidin (N/A). The mouse lineage antibody cocktail included anti-CD3, anti-CD4, anti-CD8α, anti-CD19, anti-CD11 b, anti-CD11c, anti-Gr-1, anti-NK1.1, and anti-TER119. The following antibodies were used for flow cytometry analyses of human samples, CD49f (eBioGoH3), CD45RA (L48), CD34 (581), CD38 (HIT2). CD90 (5E10), CD10 (H110a). The human lineage antibody cocktail included anti-CD3, anti-CD14, anti-CD16, anti-CD19, anti-CD20, anti-CD56. To detect human LHCGR a polyclonal anti-LHCGR (Alomone, cat #:ALR-010) was used. For intracellular Ki67/DAPI staining, BM cells were stained with surface markers, fixed, and permeabilized using the Fixation/Permeabilization kit (cat. 00552100 ebioscience) and permeabilization buffer (cat. 008333 ebioscience). Cells were then incubated with Ki67-Alexa 700 (B56) (from BD Biosciences) for 45 minutes at 4C. After centrifugation DAPI (5 μg/ml) was added to cells and allowed to incubate for at least 30 min at RT before analysis. […]

Assay [2] relates to mice challenged with successive doses of 5-FU. The assay can be described thus: Mouse survival after serial 5-fluorouracil (5-FU) challenge. The class given is in vivo. As to conditions: 5-FU 150 mg/kg I.P. once every 7 days, 3 times. From the text: To test whether this LHRH-Ant-mediated preservation of HSC quiescence and enhancement of HSC survival after hematopoietic stress could confer protection against chemotherapy-induced myeloablation, mice were challenged with successive doses of 5-fluorouracil (5-FU); a well-established method to functionally test HSC proliferation and self-renewal that leads to ablation of proliferating HSCs and ultimately death^29,34,47.
Reagents: Degarelix (as acetate), a LHRH-Ant (Firmagon), was resuspended in sterile water for injection and administered S.C. to mice at a dose of 40 mg/kg. To evaluate the radiomitigative effect of LHRH-Ant on survival, mice were treated subcutaneously (S.C.) with a single injection of the LHRH-Ant or a saline control solution (PBS). Degarelix was purchased from the Memorial Sloan-Kettering Cancer Center Pharmacy. […] LH from human pituitary (SIGMA) was resuspended in PBS for in vitro studies. MDV3100 (selleckchem) was resuspended in a mixture of 45% PBS, 45% PEG and 10% DMSO and administered daily to mice by oral gavage at a dose of 10 mg/kg. 5-FU (InvivoGen) was administered to mice intraperitoneally (I.P.) at a dose of 150 mg/kg once every 7 days consecutively for 3 times as previously described^34,47,49.

Where a SMILES comes first, the peptide text is derived from it. [ ]: non-standard residue; d: D form. The star is where a group is joined. dPhe(4-NHCONH2) = NC(=O)Nc1ccc(C[C@@H](N)C(=O)O)cc1; Dihydroorotyl(S) = O=C1C[C@@H](C(=O)*)NC(=O)N1; dPhe(4-Cl) = N[C@H](Cc1ccc(Cl)cc1)C(=O)O; Phe(4-NH2) = Nc1ccc(C[C@H](N)C(=O)O)cc1; d2Nal = N[C@H](Cc1ccc2ccccc2c1)C(=O)O; Lys(iPr) = CC(C)NCCCC[C@H](N)C(=O)O; d3Pal = N[C@H](Cc1cccnc1)C(=O)O

Consider `CC(=O)N[C@H](Cc1ccc2ccccc2c1)C(=O)N[C@H](Cc1ccc(Cl)cc1)C(=O)N[C@H](Cc1cccnc1)C(=O)N[C@@H](CO)C(=O)N[C@@H](Cc1ccc(NC(=O)[C@@H]2CC(=O)NC(=O)N2)cc1)C(=O)N[C@H](Cc1ccc(NC(N)=O)cc1)C(=O)N[C@@H](CC(C)C)C(=O)N[C@@H](CCCCNC(C)C)C(=O)N1CCC[C@H]1C(=O)N[C@H](C)C(N)=O` [LHRH-Ant, Degarelix] (Ac-[d2Nal][dPhe(4-Cl)][d3Pal]S[Phe(4-NH2)](Dihydroorotyl(S))[dPhe(4-NHCONH2)]L[Lys(iPr)]P[dA]-NH2), for which the “LT-HSCs in G0” value in the assay on LT-HSCs (Poly I:C model) and with LT-HSCs (SL-TBI model) was “retained significantly more LT-HSCs in G0” in each case. Further, the “total BM cellularity” value in assay [1] (day 7 after L-TBI, vs vehicle) is “no difference”. For the same compound, in assay [1] (day 14 after L-TBI), the “LSKs and their downstream progenitors” value is given as “expansion”. In assay [1] (day 14 after L-TBI), the LT-HSCs number result is on record as “significantly more LT-HSCs”. Besides, the BM cellularity result in assay [1] (day 14 after radiation, vs vehicle) is “started to separate significantly from the vehicle group by day 14”. Further, the “survival after serial 5-FU challenge” value in assay [2] is recorded as “significantly improved survival”.
